In US20140336248A1, “THERAPEUTIC COMPOSITIONS AND RELATED METHODS OF USE” (priority 2011, published 2014):

Experiments:
Assay type in all cases: in vivo, mouse
ICR mice [1] = assay: Tolerability 0.1, 0.3, 1.0 mg/kg IV in 3% propylene glycol/10% Solutol HS 15, 4 days (Example O); conditions: for Body weight: FIG. 8
Description: (§1) Using the techniques described above in Example A, an aqueous vehicle comprising 3% propylene glycol (v/v) and 10% Solutol® HS 15 (v/v) was prepared. An appropriate amount of salinomycin sodium was dissolved into the vehicle to make solutions having concentrations of 0.02, 0.06, and 0.2 mg/mL. Eight male ICR mice (Sino-British SIPPR/BK Lab Animal Ltd, Shanghai, China) were assigned to control and treatment groups. […] The individual animal number was marked on the tail, and study number comprised a unique identification for each animal. Animal identification was verified during the course of the study. The animals were housed two per cage in stainless steel suspended cage in an environmentally controlled room. SLACOM (Rodent Diet #20110615029, Shanghai SLAC Laboratory Animal Co. Ltd.) was available ad libitum. Temperature and humidity were monitored and recorded twice daily.
(§2) Each composition and the vehicle (control) were administered once daily to each of two mice via intravenous bolus injection for 4 consecutive days. The dose levels for the treated groups and the control group are in the below table. Individual doses were based on the most recent body weight.
(§3) Body weights for all animals were measured and recorded at receipt, prior to randomization, and once daily during the study. Body weight change was calculated for mean value of animals relative to Day 1 mean body weight value.

ICR mice [2] = assay: Tolerability 0.1, 0.3, 1.0 mg/kg IV in 1% ethanol/4% propylene glycol/5% Solutol HS 15, 4 days (Example P)
Description: as §1, with “1% ethanol (v/v), 4%” for “3%”, “5%” for “10%”
as §2, §3

ICR mice [3] = assay: Tolerability 0.3, 0.6, 1.0 mg/kg IV in 1% ethanol/4% propylene glycol/5% Solutol HS 15 (Example H); conditions: male ICR mice
Description: (§4) Injectable salinomycin compositions were prepared as follows: A) 0.2 mg/mL composition: 1.01 mg of salinomycin sodium was added to 50 μL ethanol and vortexed for 1 minute to yield a clear solution. 200 μL of propylene glycol was then added and vortexed for 1 minute, yielding a clear solution. To this solution was next added 250 μL Solutol® HS 15, with vortexing for 1 minute and sonicating for 1 minute, to yield a clear solution.
(§5) Eight male ICR mice (Sino-British SIPPR/BK Lab Animal Ltd, Shanghai, China) were assigned to control and treatment groups. […] The individual animal number marked on the tail, and study number comprised a unique identification for each animal. Animal identification was verified during the course of the study. The animals were housed two per cage in stainless steel suspended cage in an environmentally controlled room. SLACOM (Rodent Diet #20110615029, Shanghai SLAC Laboratory Animal Co. Ltd.) was available ad libitum. Temperature and humidity were monitored and recorded twice daily.
(§6) Each composition and the vehicle (control) were administered once daily to each of two mice via intravenous bolus injection for 5 consecutive days. The dose levels for the treated groups and the control group are in the below table. Individual doses were based on the most recent body weight.
as §3

ICR mice [4] = assay: Tolerability 1.5, 2.0, 3.0 mg/kg IV in 1% ethanol/4% propylene glycol/5% Solutol HS 15 (Example I); conditions: for Body weight: FIG. 2
Description: as §4, with “0.6” for “0.2”, “3.03” for “1.01”
as §5, §6, §3

With `CC[C@@H](C(=O)[C@@H](C)[C@@H](O)[C@H](C)[C@@H]1O[C@@H]([C@@H](CC)C(=O)O)CC[C@@H]1C)[C@H]1O[C@]2(C=C[C@@H](O)[C@]3(CC[C@@](C)([C@H]4CC[C@](O)(CC)[C@H](C)O4)O3)O2)[C@H](C)C[C@@H]1C` [salinomycin sodium] the Clinical observations (ICR mice [1]; 0.1 mg/kg IV once daily 4 days) was “no abnormalities”, the Clinical observations (ICR mice [1]; 0.3 mg/kg IV once daily 4 days, after initial administration, no abnormalities on days 2, 3, 4) was “slight decrease in activity” and the Body weight (ICR mice [1]; 1 mg/kg IV once daily 4 days) was “decreased steadily”. For the same compound, the Clinical observations (ICR mice [1]; 1.0 mg/kg IV once daily 4 days, no abnormalities on days 2, 3, 4) was “decreased activity and leaning”, the Body weight (ICR mice [1]; 0.1 and 0.3 mg/kg IV once daily 4 days) was “remained relatively stable” and the Clinical observations (ICR mice [2]; 0.1 mg/kg IV once daily 4 days) was “no abnormalities”. The Clinical observations (ICR mice [2]; 0.3 mg/kg IV once daily 4 days) was “no abnormalities”, the Clinical observations (ICR mice [2]; 1 mg/kg IV once daily 4 days, no abnormalities on days 2, 3, 4) was “decrease in activity after initial administration” and the Body weight (ICR mice [2]; 0.1, 0.3, 1 mg/kg IV once daily 4 days, FIG. 9) was “increased”. The Abnormalities detected (ICR mice [3]; 0.3, 0.6, 1.0 mg/kg IV bolus once daily 5 days) was “no abnormalities”, the “Body weight change relative to Day 1” value (ICR mice [3]; 0.3, 0.6, 1.0 mg/kg IV bolus once daily 5 days, FIG. 1) was “all groups added weight” and the “Dose that can be safely dosed” value (ICR mice [3]; IV once daily 5 days) was 1 mg/kg. The Clinical observations (ICR mice [4]; 1.5 mg/kg IV once daily 5 days) was “decreased activity levels”, the Recovery (ICR mice [4]; 1.5 mg/kg IV once daily 5 days) was “returned to normal function at the conclusion of the study” and the Body weight (ICR mice [4]; 2 mg/kg IV once daily 5 days) was “lost weight”. The Clinical observations (ICR mice [4]; 2.0 mg/kg IV once daily 5 days, post dosage) was “decreased activity and rapid breathing”, the Mortality (ICR mice [4]; 2.0 mg/kg IV once daily 5 days, two mice) was “One of the animals dosed at 2.0 mg/kg was found dead on day 4” and the Clinical observations (ICR mice [4]; 3.0 mg/kg IV once daily 5 days, after dosing) was “decreased activity, rapid breathing and loss of reflex activity”. For the same compound, the Body weight (ICR mice [4]; 1.5 and 3.0 mg/kg IV once daily 5 days) was “stable”.
